Results from patent US20150307520A1, “NOVEL HETEROARYL AND HETEROCYCLE COMPOUNDS, COMPOSITIONS AND METHODS THEREOF” (HUTCHISON MEDIPHARMA LIMITED, priority 2012, published 2015).

Legend:
Type in all cases: biochemical
p110α/p85α = p110α/p85α (Homo sapiens, UniProt P42336); assay: Transcreener KINASE Assay, kinase inhibition of p110α/p85α; settings: 1 uM test compound
Experimental: PI3K kinases including p110α/p85α, p110δ/p85α and p110γ are purchased from Invitrogen, and p110β/p85α is from Millipore.
Primary screening data and IC50 values are measured using Transcreener™ KINASE Assay (Bellbrook, Catalog #3003-10K). […] It is a universal, homogenous, high throughput screening (HTS) technology using a far-red, competitive fluorescence polarization immunoassay based on the detection of ADP to monitor the activity of enzymes that catalyze group transfer reactions. Briefly, the Transcreener KINASE Assay is designed as a simple two-part, endpoint assay.
In the first step, the 25 ul kinase reaction is performed by preparing a reaction mixture containing 5 ul test compound (2% DMSO final concentration), 10 ul kinase, buffer (50 mM HEPES, 100 mM NaCl, 1 mM EGTA, 0.03% CHAPS, 3 mM MgCl2, and freshly supplemented 1 mM DTT), and 10 ul 30 uM PIP2/10 uM ATP. The plate is sealed and incubated for 80 min at room temperature. Next, 25 ul ADP detection mix is added per well. The plate is sealed again and incubated for 60 min at room temperature, and then measure fluorescence polarization by Tecan Infinite F500 Reader.
Data is analyzed and IC50s are generated using the add-in software for Microsoft Excel, Xlfit™ (version 2.0). IH %=(ADP amount under 2% DMSO-ADP amount under test compound)/ADP amount under 2% DMSO.

p110β/p85α = p110β/p85α (Homo sapiens, UniProt P42338); assay: Transcreener KINASE Assay, kinase inhibition of p110β/p85α; settings: for PI3Kβ IH % @ 1 uM: 1 uM test compound; for IC50: read-out: PI3Kβ IC50
Outline: (§1)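 Recombinant PI3K/p85α heterodimers were incubated with compound (2% DMSO final) for 80 min at room temperature in 50 mM HEPES, 100 mM NaCl, 1 mM EGTA, 0.03% CHAPS, 3 mM MgCl2, 1 mM DTT, with substrate added as a 30 uM PIP2/10 uM ATP mix. ADP was detected by competitive fluorescence polarization immunoassay.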

p110δ/p85α = p110δ/p85α (Homo sapiens, UniProt O00329); assay: Transcreener KINASE Assay, kinase inhibition of p110δ/p85α; settings: for PI3Kδ IH % @ 1 uM: 1 uM test compound; for IC50: read-out: PI3Kδ IC50
Outline: as §1

p110γ = p110γ (Homo sapiens, UniProt P48736); assay: Transcreener KINASE Assay, kinase inhibition of p110γ; settings: for PI3Kγ IH % @ 1 uM: 1 uM test compound; for IC50: read-out: PI3Kγ IC50
Outline: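 ADP-detecting fluorescence polarization immunoassay run as two-step endpoint: kinase reaction for 80 min, detection for 60 min, both at room temperature. Enzymes are recombinant p110 isoforms with p85α, except p110γ. IC50s derived from fitted inhibition curves.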

Chain of p110α/p85α (P42336 whole entry): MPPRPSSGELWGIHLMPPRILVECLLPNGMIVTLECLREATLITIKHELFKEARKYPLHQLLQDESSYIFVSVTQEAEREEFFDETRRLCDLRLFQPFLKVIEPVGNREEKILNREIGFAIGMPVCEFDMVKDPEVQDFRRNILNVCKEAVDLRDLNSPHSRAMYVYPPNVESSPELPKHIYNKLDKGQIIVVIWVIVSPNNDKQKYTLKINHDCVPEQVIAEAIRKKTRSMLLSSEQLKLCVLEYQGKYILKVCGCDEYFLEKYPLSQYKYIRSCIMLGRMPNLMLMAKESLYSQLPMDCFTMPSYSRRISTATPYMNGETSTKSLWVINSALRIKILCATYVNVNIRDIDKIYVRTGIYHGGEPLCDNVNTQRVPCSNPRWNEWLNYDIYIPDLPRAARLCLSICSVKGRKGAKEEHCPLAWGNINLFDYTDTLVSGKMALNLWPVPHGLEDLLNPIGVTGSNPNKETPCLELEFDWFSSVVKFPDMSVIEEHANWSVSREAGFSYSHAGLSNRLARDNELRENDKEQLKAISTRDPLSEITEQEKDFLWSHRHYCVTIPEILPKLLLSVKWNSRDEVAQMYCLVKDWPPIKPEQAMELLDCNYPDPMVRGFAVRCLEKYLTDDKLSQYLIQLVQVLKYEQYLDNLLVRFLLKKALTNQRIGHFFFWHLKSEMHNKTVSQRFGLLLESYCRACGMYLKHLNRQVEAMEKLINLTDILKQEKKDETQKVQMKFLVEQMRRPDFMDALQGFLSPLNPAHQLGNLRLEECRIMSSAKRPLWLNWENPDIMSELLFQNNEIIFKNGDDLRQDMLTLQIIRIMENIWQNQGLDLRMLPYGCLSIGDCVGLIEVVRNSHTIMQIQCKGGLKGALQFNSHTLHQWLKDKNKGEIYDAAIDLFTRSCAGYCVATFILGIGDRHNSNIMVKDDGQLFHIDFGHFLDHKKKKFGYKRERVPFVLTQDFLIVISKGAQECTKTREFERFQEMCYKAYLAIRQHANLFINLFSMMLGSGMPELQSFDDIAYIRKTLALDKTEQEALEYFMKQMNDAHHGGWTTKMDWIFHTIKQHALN
Chain of p110α/p85α (P27986 whole entry partner): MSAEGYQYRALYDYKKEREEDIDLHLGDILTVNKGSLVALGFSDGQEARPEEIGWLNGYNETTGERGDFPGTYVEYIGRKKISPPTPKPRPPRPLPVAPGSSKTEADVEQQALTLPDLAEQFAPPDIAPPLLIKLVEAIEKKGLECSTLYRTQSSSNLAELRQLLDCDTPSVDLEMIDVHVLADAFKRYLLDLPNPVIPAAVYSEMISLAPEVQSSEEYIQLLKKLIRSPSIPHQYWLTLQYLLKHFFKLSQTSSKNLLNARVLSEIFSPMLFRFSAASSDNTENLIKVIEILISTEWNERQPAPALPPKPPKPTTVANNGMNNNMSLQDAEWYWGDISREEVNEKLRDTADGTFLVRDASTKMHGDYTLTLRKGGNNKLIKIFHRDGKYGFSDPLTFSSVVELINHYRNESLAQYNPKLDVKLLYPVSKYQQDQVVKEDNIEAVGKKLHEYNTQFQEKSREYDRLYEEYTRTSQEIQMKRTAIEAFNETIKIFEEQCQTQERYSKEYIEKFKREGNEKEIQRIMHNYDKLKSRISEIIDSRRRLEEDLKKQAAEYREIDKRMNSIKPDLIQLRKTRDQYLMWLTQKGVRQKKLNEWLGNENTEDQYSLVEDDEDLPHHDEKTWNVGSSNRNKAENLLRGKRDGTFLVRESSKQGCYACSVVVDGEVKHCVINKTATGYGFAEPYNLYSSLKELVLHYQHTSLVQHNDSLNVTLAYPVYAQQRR
Chain of p110β/p85α (P42338 whole entry): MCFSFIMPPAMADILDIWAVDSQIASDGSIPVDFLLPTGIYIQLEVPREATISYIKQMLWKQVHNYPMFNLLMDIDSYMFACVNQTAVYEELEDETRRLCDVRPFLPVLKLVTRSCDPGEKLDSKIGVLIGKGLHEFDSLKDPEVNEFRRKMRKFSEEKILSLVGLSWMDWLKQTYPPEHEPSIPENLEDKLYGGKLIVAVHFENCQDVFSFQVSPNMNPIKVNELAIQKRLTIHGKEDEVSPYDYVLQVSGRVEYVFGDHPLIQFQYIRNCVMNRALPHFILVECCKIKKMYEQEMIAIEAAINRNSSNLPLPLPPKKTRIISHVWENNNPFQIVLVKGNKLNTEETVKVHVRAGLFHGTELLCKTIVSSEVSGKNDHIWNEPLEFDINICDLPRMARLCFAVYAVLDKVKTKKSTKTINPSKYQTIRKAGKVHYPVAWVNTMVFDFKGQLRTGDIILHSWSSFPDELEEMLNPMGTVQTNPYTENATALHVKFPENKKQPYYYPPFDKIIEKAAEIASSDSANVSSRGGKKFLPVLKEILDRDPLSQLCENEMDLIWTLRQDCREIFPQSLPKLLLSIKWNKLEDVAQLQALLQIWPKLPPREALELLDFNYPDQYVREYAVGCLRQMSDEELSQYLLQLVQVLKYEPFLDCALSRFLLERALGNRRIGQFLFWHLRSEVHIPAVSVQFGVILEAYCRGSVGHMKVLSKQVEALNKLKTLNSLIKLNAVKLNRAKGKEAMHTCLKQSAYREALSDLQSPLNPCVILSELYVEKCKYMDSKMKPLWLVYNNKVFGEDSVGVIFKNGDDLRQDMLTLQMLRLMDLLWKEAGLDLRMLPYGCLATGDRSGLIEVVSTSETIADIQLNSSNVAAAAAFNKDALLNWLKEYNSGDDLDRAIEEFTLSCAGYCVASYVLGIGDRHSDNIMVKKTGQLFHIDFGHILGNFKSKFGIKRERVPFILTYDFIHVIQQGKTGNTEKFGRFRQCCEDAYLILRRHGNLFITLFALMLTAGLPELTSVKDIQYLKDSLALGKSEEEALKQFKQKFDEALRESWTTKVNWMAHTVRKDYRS
Chain of p110β/p85α (P27986 2-724 partner): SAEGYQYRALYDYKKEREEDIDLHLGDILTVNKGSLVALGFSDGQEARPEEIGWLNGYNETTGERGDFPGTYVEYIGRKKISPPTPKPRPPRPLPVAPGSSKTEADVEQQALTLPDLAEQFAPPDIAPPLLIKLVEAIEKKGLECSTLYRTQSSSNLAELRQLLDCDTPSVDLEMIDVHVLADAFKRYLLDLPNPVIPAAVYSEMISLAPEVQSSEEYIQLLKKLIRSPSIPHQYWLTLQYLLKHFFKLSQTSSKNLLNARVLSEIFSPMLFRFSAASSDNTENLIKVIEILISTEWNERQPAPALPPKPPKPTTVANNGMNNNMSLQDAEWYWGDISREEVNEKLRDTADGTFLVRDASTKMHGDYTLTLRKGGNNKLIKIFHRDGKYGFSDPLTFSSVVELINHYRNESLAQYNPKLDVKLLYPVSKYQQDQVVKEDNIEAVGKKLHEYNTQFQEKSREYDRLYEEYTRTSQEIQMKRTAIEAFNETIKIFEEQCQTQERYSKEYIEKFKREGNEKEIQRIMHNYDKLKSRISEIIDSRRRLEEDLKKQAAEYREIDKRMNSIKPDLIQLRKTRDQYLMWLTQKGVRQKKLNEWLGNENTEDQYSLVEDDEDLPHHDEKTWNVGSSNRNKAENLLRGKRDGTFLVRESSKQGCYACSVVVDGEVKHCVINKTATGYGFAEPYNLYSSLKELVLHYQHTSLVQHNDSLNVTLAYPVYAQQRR
Chain of p110δ/p85α (O00329 whole entry): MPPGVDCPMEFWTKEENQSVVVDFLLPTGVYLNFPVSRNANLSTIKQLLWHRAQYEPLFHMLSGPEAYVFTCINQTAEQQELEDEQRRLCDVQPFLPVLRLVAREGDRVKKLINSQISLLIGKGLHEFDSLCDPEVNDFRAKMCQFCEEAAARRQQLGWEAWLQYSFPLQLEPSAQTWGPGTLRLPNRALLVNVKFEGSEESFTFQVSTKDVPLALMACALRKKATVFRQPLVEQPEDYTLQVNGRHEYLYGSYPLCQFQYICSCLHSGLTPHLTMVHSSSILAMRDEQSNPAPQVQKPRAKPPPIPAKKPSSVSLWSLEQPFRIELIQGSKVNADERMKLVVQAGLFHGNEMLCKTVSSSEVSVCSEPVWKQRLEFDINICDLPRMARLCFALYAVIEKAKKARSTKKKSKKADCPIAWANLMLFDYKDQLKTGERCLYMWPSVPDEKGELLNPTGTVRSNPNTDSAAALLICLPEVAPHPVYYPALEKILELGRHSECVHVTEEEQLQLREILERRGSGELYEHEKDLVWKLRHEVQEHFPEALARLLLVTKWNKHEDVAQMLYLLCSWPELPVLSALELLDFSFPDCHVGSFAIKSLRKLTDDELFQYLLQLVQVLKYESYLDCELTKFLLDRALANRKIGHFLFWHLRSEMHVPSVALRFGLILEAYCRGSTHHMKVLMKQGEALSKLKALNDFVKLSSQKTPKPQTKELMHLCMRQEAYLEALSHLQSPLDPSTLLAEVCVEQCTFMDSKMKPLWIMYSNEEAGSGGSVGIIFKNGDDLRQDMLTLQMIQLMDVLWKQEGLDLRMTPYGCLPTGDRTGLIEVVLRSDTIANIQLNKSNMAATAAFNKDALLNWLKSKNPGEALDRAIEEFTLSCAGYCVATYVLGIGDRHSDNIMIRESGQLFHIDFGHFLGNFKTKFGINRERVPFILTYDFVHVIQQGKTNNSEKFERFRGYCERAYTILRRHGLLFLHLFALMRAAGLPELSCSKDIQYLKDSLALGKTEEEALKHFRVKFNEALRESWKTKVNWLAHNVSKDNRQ
Chain of p110δ/p85α (P27986 whole entry partner): as the sequence (P27986 whole entry partner) above

N#Cc1c[nH]c2ncnc(N3CCC[C@H]3c3nn4ccc(Cl)c4c(=O)n3Cc3ccccn3)c12 [Compound 65]
PI3Kα IH % @ 1 uM (p110α/p85α): 52.6% | PI3Kβ IH % @ 1 uM (p110β/p85α): 50.6% | PI3Kδ IH % @ 1 uM (p110δ/p85α): >100% | IC50 (p110δ/p85α): 14 nM | PI3Kγ IH % @ 1 uM (p110γ): >100% | IC50 (p110γ): 78 nM

N#Cc1c[nH]c2ncnc(N3CCC[C@H]3c3nn4ccc(Cl)c4c(=O)n3Cc3cccnc3)c12 [Compound 66]
PI3Kα IH % @ 1 uM (p110α/p85α): 75.6% | PI3Kβ IH % @ 1 uM (p110β/p85α): 63.6% | PI3Kδ IH % @ 1 uM (p110δ/p85α): >100% | IC50 (p110δ/p85α): 12 nM | PI3Kγ IH % @ 1 uM (p110γ): >100% | IC50 (p110γ): 14 nM

N#Cc1c(N)ncnc1N1CCC[C@H]1c1nn2ccc(Cl)c2c(=O)n1Cc1ccccn1 [Compound 69]
PI3Kα IH % @ 1 uM (p110α/p85α): 13.0% | PI3Kβ IH % @ 1 uM (p110β/p85α): 57.8% | PI3Kδ IH % @ 1 uM (p110δ/p85α): 99.9% | IC50 (p110δ/p85α): 9 nM | PI3Kγ IH % @ 1 uM (p110γ): 68.8%

N#Cc1c[nH]c2ncnc(N3C[C@H](O)C[C@H]3c3nn4ccc(Cl)c4c(=O)n3-c3ccccc3)c12 [Compound 70, 4-((2S,4R)-2-(5-chloro-4-oxo-3-phenyl-3,4-dihydropyrrolo[2,1-f][1,2,4]triazin-2-yl)-4-hydroxypyrrolidin-1-yl)-7H-pyrrolo[2,3-d]pyrimidine-5-carbonitrile]
PI3Kα IH % @ 1 uM (p110α/p85α): 41.6% | PI3Kβ IH % @ 1 uM (p110β/p85α): 92.1% | IC50 (p110β/p85α): 220 nM | PI3Kδ IH % @ 1 uM (p110δ/p85α): 99.1% | IC50 (p110δ/p85α): 3 nM | PI3Kγ IH % @ 1 uM (p110γ): >100% | IC50 (p110γ): 25 nM

O=c1c2c(Cl)ccn2nc([C@@H]2C[C@H](F)CN2c2ncnc3[nH]cnc23)n1-c1ccccc1 [Compound 73, 5-chloro-2-((2S,4S)-4-fluoro-1-(9H-purin-6-yl)pyrrolidin-2-yl)-3-phenylpyrrolo[2,1-f][1,2,4]triazin-4(3H)-one]
PI3Kα IH % @ 1 uM (p110α/p85α): 33.6% | PI3Kβ IH % @ 1 uM (p110β/p85α): 69.5% | IC50 (p110β/p85α): 420 nM | PI3Kδ IH % @ 1 uM (p110δ/p85α): >100% | IC50 (p110δ/p85α): 3 nM | PI3Kγ IH % @ 1 uM (p110γ): 92.7%

CC(Nc1nc(N)ncc1C(F)(F)F)c1cn2ccc(Cl)c2c(=O)n1-c1cccc(F)c1 (centres unmarked) [Compound 84]
PI3Kα IH % @ 1 uM (p110α/p85α): −3.5% | PI3Kβ IH % @ 1 uM (p110β/p85α): 59.3% | PI3Kδ IH % @ 1 uM (p110δ/p85α): >100% | IC50 (p110δ/p85α): 4 nM | PI3Kγ IH % @ 1 uM (p110γ): 75.9% | IC50 (p110γ): 32 nM

CCC(Nc1ncnc2[nH]cnc12)c1cn2ccc(Cl)c2c(=O)n1-c1cccc(F)c1 (centres unmarked) [Compound 85, 3-(1-(9H-purin-6-ylamino)propyl)-8-chloro-2-(3-fluorophenyl)pyrrolo[1,2-a]pyrazin-1(2H)-one]
PI3Kα IH % @ 1 uM (p110α/p85α): 27.4% | PI3Kβ IH % @ 1 uM (p110β/p85α): 74.7% | IC50 (p110β/p85α): 311 nM | PI3Kδ IH % @ 1 uM (p110δ/p85α): >100% | IC50 (p110δ/p85α): 1 nM | PI3Kγ IH % @ 1 uM (p110γ): 87.8% | IC50 (p110γ): 30 nM

CCC(Nc1ncnc(N)c1C#N)c1cn2ccc(Cl)c2c(=O)n1-c1cccc(F)c1 (centres unmarked) [Compound 86]
PI3Kα IH % @ 1 uM (p110α/p85α): 17.8% | PI3Kβ IH % @ 1 uM (p110β/p85α): 86.5% | IC50 (p110β/p85α): 172 nM | PI3Kδ IH % @ 1 uM (p110δ/p85α): 99.0% | IC50 (p110δ/p85α): 2 nM | PI3Kγ IH % @ 1 uM (p110γ): 76.4% | IC50 (p110γ): 139 nM

Cc1ccn2cc(C(C)Nc3ncnc4[nH]cc(C#N)c34)n(-c3ccccc3)c(=O)c12 (centres unmarked) [Compound 91]
PI3Kα IH % @ 1 uM (p110α/p85α): 48.3% | PI3Kβ IH % @ 1 uM (p110β/p85α): 78.3% | IC50 (p110β/p85α): 222 nM | PI3Kδ IH % @ 1 uM (p110δ/p85α): >100% | IC50 (p110δ/p85α): 5 nM | PI3Kγ IH % @ 1 uM (p110γ): 93.5% | IC50 (p110γ): 34 nM

Cc1ccn2cc(C(C)Nc3ncnc4[nH]cnc34)n(-c3ccccc3)c(=O)c12 (centres unmarked) [Compound 92]
PI3Kα IH % @ 1 uM (p110α/p85α): 31.8% | PI3Kβ IH % @ 1 uM (p110β/p85α): 65.2% | PI3Kδ IH % @ 1 uM (p110δ/p85α): >100% | IC50 (p110δ/p85α): 3 nM | PI3Kγ IH % @ 1 uM (p110γ): 95.7% | IC50 (p110γ): 20 nM

Nc1ccc(-c2c[nH]c3ncnc(N4CC[C@H]4c4nn5ccc(Cl)c5c(=O)n4-c4ccccc4)c23)cn1 [Compound 101]
PI3Kα IH % @ 1 uM (p110α/p85α): 47.8% | PI3Kβ IH % @ 1 uM (p110β/p85α): 81.6% | IC50 (p110β/p85α): 138 nM | PI3Kδ IH % @ 1 uM (p110δ/p85α): >100% | IC50 (p110δ/p85α): 3 nM | PI3Kγ IH % @ 1 uM (p110γ): >100%

CC(Nc1ncnc2[nH]cnc12)c1cc2ccc(Cl)n2c(=O)n1-c1cccc(F)c1 (centres unmarked) [Compound 127]
PI3Kα IH % @ 1 uM (p110α/p85α): 7.0% | PI3Kβ IH % @ 1 uM (p110β/p85α): 71.3% | IC50 (p110β/p85α): 307 nM | PI3Kδ IH % @ 1 uM (p110δ/p85α): 99.2% | IC50 (p110δ/p85α): 5 nM | PI3Kγ IH % @ 1 uM (p110γ): >100% | IC50 (p110γ): 57 nM

CC(Nc1ncnc2[nH]cc(C#N)c12)c1cc2ccc(Cl)n2c(=O)n1-c1cccc(F)c1 (centres unmarked) [Compound 128]
PI3Kα IH % @ 1 uM (p110α/p85α): 40.3% | PI3Kβ IH % @ 1 uM (p110β/p85α): 87.8% | IC50 (p110β/p85α): 86 nM | PI3Kδ IH % @ 1 uM (p110δ/p85α): 99.0% | IC50 (p110δ/p85α): 1 nM | PI3Kγ IH % @ 1 uM (p110γ): 96.2% | IC50 (p110γ): 10 nM
